Experimental data reported in US20250099517A1, “Use of Lactobacillus reuteri Y7 strain for prevention or treatment of ocular diseases” (Taipei Medical University, priority 2023, published 2025).

Test system: Occludin, Claudin-1, ZO-1 gene expression
Assay: q-PCR of tight junction gene expression in colons
Type: in vivo, C57BL/6 mice
Details: for gene expressions of ZO-1: p<0.05
Protocol: The C57BL/6 mice, which weighed between 23 and 25 g, were divided into seven groups randomly. In each group, the six mice induced by blue light successfully were incorporated in experiments. The samples dissolved in deuterium-depleted water (DDW) were fed to mice through oral tubes once a day. The groups were named and introduced as follows: • (1) Solvent not classified group (NC): The mice were fed with 0.2 ml deuterium-depleted water (DDW) through tubes; • (2) Negative control group (Blue light (BL)): The mice were fed with 0.2 ml deuterium-depleted water (DDW) through tubes and exposed to blue light; • (3) Low-dosage Y7 probiotics group […]): The mice were fed with low-dosage Y7 probiotics (probiotic counts of 1.0×10^8 CFU/ml dissolved in 0.2 ml DDW per day) and exposed to blue light; • (4) High-dosage Y7 probiotics group […]): The mice were fed with high-dosage Y7 probiotics (probiotic counts of 1.0×10^9 CFU/ml dissolved in 0.2 ml DDW per day) and exposed to blue light; • (5) Positive control group (lutein (LU)): The mice were fed with lutein and exposed to blue light. The recommended human dosage of lutein is 30 mg. The mouse cage (48×25×20 cm) placed inside a stainless ventilated box was equipped with blue light boards as blue light sources around and above. In the experiment of animals exposed to blue light, six-week-old mice staying in the mouse cage were fed with drinking water as well as fodders and exposed to 400 Lux blue light illumination under the light-dark cycle of 12-hour light and 12-hour dark. The experiment was aimed at causing mice' late dry macular disease induced by chronic light injuries for simulating a human being's macular disease after long-term exposure to short-wavelength blue light from 3C products in daily life. The eyes of a mouse sacrificed were collected for the following purposes. RNAs extracted with Trizol were reverse-transcribed to cDNAs. Then, the real-time quantitative polymerase chain reaction was enabled to detect gene expressions related to inflammatory hormones and apoptosis such as TNF-α, IL-1B, IL-6, Bax, Bcl-2, Caspase1, Caspase3 and NLRP3 for comparisons with the endogenous level of β-actin, GAPDH or 18S rRNA. [table] The gene expressions related to tight junctions of mice' eyes, buccal mucosas and colons after induction of blue light were analyzed through q-PCR and shown in FIG. 10a, FIG. 10d and FIG. 10g for Occludin, FIG. 10b, FIG. 10e and FIG. 10h for Claudin-1 and FIG. 10c, FIG. 10f and FIG. 10i for ZO-1, respectively.

Lactobacillus reuteri Y7 [Y7 probiotics]
ascending trend: gene expressions of Claudin-1 (Y7H high-dosage group) | gene expressions of Occludin (Y7H high-dosage group) | gene expressions of Claudin-1 (Y7L low-dosage group) | gene expressions of Occludin (Y7L low-dosage group)
increased significantly: gene expressions of ZO-1 (Y7H high-dosage group) | gene expressions of ZO-1 (Y7L low-dosage group)
